Results from patent publication US20130303509A1, “NAMPT INHIBITORS” (AbbVie Inc., priority 2012, published 2013).

Tested on: PC3 cells
Experiment: NAMPT Cell Proliferation Assay
Assay type: cell-based
Details: Homo sapiens, PC-3, 120 h, 5 days incubation, cell viability by Cell Titer Glo
In short: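 Seeded at 500 cells/well in RPMI with 10% heat-inactivated FBS and left to attach overnight at 37° C, 5% CO2. Compounds were added as 10-fold dilutions […] for 5 days, then viability was read by CellTiter-Glo. IC50s came from sigmoidal fits of percent inhibition.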

SMILES	IC50
O=C(Nc1ccc(C2CCN(C(=O)c3ccc(F)c(F)c3)CC2)cc1)C1CN(c2ccnnc2)C1 [Example 533, N-{4-[1-(3,4-difluorobenzoyl)piperidin-4-yl]phenyl}-1-(pyridazin-4-yl)azetidine-3-carboxamide]	24.6 nM
O=C(Nc1ccc(C2CCN(C(=O)Cc3cccc(F)c3)CC2)cc1)C1CN(c2ccnnc2)C1 [Example 534, N-(4-{1-[(3-fluorophenyl)acetyl]piperidin-4-yl}phenyl)-1-(pyridazin-4-yl)azetidine-3-carboxamide]	5.46 nM
O=C(Nc1ccc(C2CCN(C(=O)c3cccc(C(F)(F)F)c3)CC2)cc1)C1CN(c2ccnnc2)C1 [Example 535, 1-(pyridazin-4-yl)-N-(4-{1-[3-(trifluoromethyl)benzoyl]piperidin-4-yl}phenyl)azetidine-3-carboxamide]	9.39 nM
O=C(Nc1ccc(C2CCN(C(=O)Cc3ccc(F)cc3F)CC2)cc1)C1CN(c2ccnnc2)C1 [Example 536, N-(4-{1-[(2,4-difluorophenyl)acetyl]piperidin-4-yl}phenyl)-1-(pyridazin-4-yl)azetidine-3-carboxamide]	6.14 nM
O=C(Nc1ccc(C2CCN(C(=O)C3CCCO3)CC2)cc1)C1CN(c2ccnnc2)C1 (centres unmarked) [Example 538, 1-(pyridazin-4-yl)-N-{4-[1-(tetrahydrofuran-2-ylcarbonyl)piperidin-4-yl]phenyl}azetidine-3-carboxamide]	13.7 nM
O=C(Nc1ccc(C2CCN(C(=O)Cc3ccccc3F)CC2)cc1)C1CN(c2ccnnc2)C1 [Example 540, N-(4-{1-[(2-fluorophenyl)acetyl]piperidin-4-yl}phenyl)-1-(pyridazin-4-yl)azetidine-3-carboxamide]	3.91 nM
O=C(Nc1ccc(C2CCN(C(=O)C3CCOC3)CC2)cc1)C1CN(c2ccnnc2)C1 (centres unmarked) [Example 542, 1-(pyridazin-4-yl)-N-{4-[1-(tetrahydrofuran-3-ylcarbonyl)piperidin-4-yl]phenyl}azetidine-3-carboxamide]	67.6 nM
CC(C)(C(=O)N1CCC(c2ccc(NC(=O)C3CN(c4ccnnc4)C3)cc2)CC1)c1ccccc1 [Example 546, N-{4-[1-(2-methyl-2-phenylpropanoyl)piperidin-4-yl]phenyl}-1-(pyridazin-4-yl)azetidine-3-carboxamide]	1.41 nM
O=C(Nc1ccc(C2CCN(C(=O)Cc3cccc(C(F)(F)F)c3)CC2)cc1)C1CN(c2ccnnc2)C1 [Example 550, 1-(pyridazin-4-yl)-N-[4-(1-{[3-(trifluoromethyl)phenyl]acetyl}piperidin-4-yl)phenyl]azetidine-3-carboxamide]	8.21 nM
O=C(Nc1ccc(C2CCN(C(=O)c3ccc(C(F)(F)F)cc3)CC2)cc1)C1CN(c2ccnnc2)C1 [Example 553, 1-(pyridazin-4-yl)-N-(4-{1-[4-(trifluoromethyl)benzoyl]piperidin-4-yl}phenyl)azetidine-3-carboxamide]	44.1 nM
O=C(Nc1ccc(C2CCN(C(=O)c3ccc(OC(F)(F)F)cc3)CC2)cc1)C1CN(c2ccnnc2)C1 [Example 555, 1-(pyridazin-4-yl)-N-(4-{1-[4-(trifluoromethoxy)benzoyl]piperidin-4-yl}phenyl)azetidine-3-carboxamide]	23.9 nM
CC(C)CC(=O)N1CCC(c2ccc(NC(=O)C3CN(c4ccnnc4)C3)cc2)CC1 [Example 556, N-{4-[1-(3-methylbutanoyl)piperidin-4-yl]phenyl}-1-(pyridazin-4-yl)azetidine-3-carboxamide]	5.98 nM
O=C(Nc1ccc(C2CCN(C(=O)CC(F)(F)F)CC2)cc1)C1CN(c2ccnnc2)C1 [Example 557, 1-(pyridazin-4-yl)-N-{4-[1-(3,3,3-trifluoropropanoyl)piperidin-4-yl]phenyl}azetidine-3-carboxamide]	10.2 nM
O=C(Nc1ccc(C2CCN(C(=O)C(F)(F)c3ccccc3)CC2)cc1)C1CN(c2ccnnc2)C1 [Example 558, N-(4-{1-[difluoro(phenyl)acetyl]piperidin-4-yl}phenyl)-1-(pyridazin-4-yl)azetidine-3-carboxamide]	0.66 nM

Continued, values first:

IC50	SMILES
3.3 nM	O=C(Nc1ccc(C2CCN(C(=O)c3cscn3)CC2)cc1)C1CN(c2ccnnc2)C1 [Example 537, 1-(pyridazin-4-yl)-N-{4-[1-(1,3-thiazol-4-ylcarbonyl)piperidin-4-yl]phenyl}azetidine-3-carboxamide]
2.57 nM	Cc1ccc(C(=O)N2CCC(c3ccc(NC(=O)C4CN(c5ccnnc5)C4)cc3)CC2)s1 [Example 539, N-(4-{1-[(5-methylthiophen-2-yl)carbonyl]piperidin-4-yl}phenyl)-1-(pyridazin-4-yl)azetidine-3-carboxamide]
4.2 nM	O=C(Nc1ccc(C2CCN(C(=O)C3CC3)CC2)cc1)C1CN(c2ccnnc2)C1 [Example 541, N-{4-[1-(cyclopropylcarbonyl)piperidin-4-yl]phenyl}-1-(pyridazin-4-yl)azetidine-3-carboxamide]
7.7 nM	O=C(Nc1ccc(C2CCN(C(=O)c3ccccn3)CC2)cc1)C1CN(c2ccnnc2)C1 [Example 543, 1-(pyridazin-4-yl)-N-{4-[1-(pyridin-2-ylcarbonyl)piperidin-4-yl]phenyl}azetidine-3-carboxamide]
7.17 nM	O=C(Nc1ccc(C2CCN(C(=O)c3cccc(Cl)c3)CC2)cc1)C1CN(c2ccnnc2)C1 [Example 544, N-{4-[1-(3-chlorobenzoyl)piperidin-4-yl]phenyl}-1-(pyridazin-4-yl)azetidine-3-carboxamide]
15.2 nM	O=C(Nc1ccc(C2CCN(C(=O)c3ccc(Cl)cc3)CC2)cc1)C1CN(c2ccnnc2)C1 [Example 545, N-{4-[1-(4-chlorobenzoyl)piperidin-4-yl]phenyl}-1-(pyridazin-4-yl)azetidine-3-carboxamide]
3.02 nM	O=C(Nc1ccc(C2CCN(C(=O)c3ccc(F)cc3F)CC2)cc1)C1CN(c2ccnnc2)C1 [Example 547, N-{4-[1-(2,4-difluorobenzoyl)piperidin-4-yl]phenyl}-1-(pyridazin-4-yl)azetidine-3-carboxamide]
64.9 nM	COCC(=O)N1CCC(c2ccc(NC(=O)C3CN(c4ccnnc4)C3)cc2)CC1 [Example 548, N-{4-[1-(methoxyacetyl)piperidin-4-yl]phenyl}-1-(pyridazin-4-yl)azetidine-3-carboxamide]
0.67 nM	O=C(Nc1ccc(C2CCN(C(=O)c3cccs3)CC2)cc1)C1CN(c2ccnnc2)C1 [Example 549, 1-(pyridazin-4-yl)-N-{4-[1-(thiophen-2-ylcarbonyl)piperidin-4-yl]phenyl}azetidine-3-carboxamide]
0.48 nM	O=C(Nc1ccc(C2CCN(C(=O)c3ccccc3F)CC2)cc1)C1CN(c2ccnnc2)C1 [Example 551, N-{4-[1-(2-fluorobenzoyl)piperidin-4-yl]phenyl}-1-(pyridazin-4-yl)azetidine-3-carboxamide]
3.32 nM	O=C(Nc1ccc(C2CCN(C(=O)c3cc(F)cc(F)c3)CC2)cc1)C1CN(c2ccnnc2)C1 [Example 552, N-{4-[1-(3,5-difluorobenzoyl)piperidin-4-yl]phenyl}-1-(pyridazin-4-yl)azetidine-3-carboxamide]
2.63 nM	O=C(Nc1ccc(C2CCN(C(=O)c3cccc(F)c3)CC2)cc1)C1CN(c2ccnnc2)C1 [Example 554, N-{4-[1-(3-fluorobenzoyl)piperidin-4-yl]phenyl}-1-(pyridazin-4-yl)azetidine-3-carboxamide]
